Test results from patent US11702392B2, “Pyrimidinone derivatives as SHP2 antagonists” (MERCK PATENT GMBH, priority 2019, dated 2023).
Entries after “also recorded” stand apart in the source; their conditions may differ.

What was measured:
pERK1/2 in KYSE520 cells = test: p-Erk cellular assay in KYSE520 (Mesoscale); assay type: cell-based; details: Homo sapiens, KYSE-520, 2 h, read-out: pERK1/2 in Cell KYSE520 IC50
Description: The effect of SHP2 inhibitors on pERK level was assessed using phospho-specific antibody using Mesoscale quantification platform. For measuring change in pERK levels using mesoscale, 30,000 cells of KYSE520 cells were plated in 96-well tissue culture treated plate in 175 μl volume of media. After an overnight incubation at 37° C., various SHP2 inhibitors were added in different concentration to each well maintaining duplicate wells across plates and incubated with compounds for 2 h at 37° C. followed by a wash with ice cold PBS buffer. The cells were then lysed in lysis buffer and processed and analyzed for p-ERK/ERK as per manufacturer's instructions (Mesoscale discovery, cat No. […]-3).

[1] = biological target: Full length SHP2 protein (Recombinant Human SHP-2) (Homo sapiens (Human), UniProt Q06124); test: SHP2 biochemical assay (DiFMUP substrate, activating peptide IRS1_2pY); details: activating peptide IRS1_2pY 140 nM, 60 min
Description: The inhibition of SHP2 by compounds of the invention was monitored using the surrogate substrate DiFMUP after protein activation by a peptide bearing two appropriately spaced phosphotyrosine. […] The generation of the DiFMU product by activated SHP2 was monitored through Fluorescence measurement with a PerkinElmer Envision reader. The inhibitor dose response curves were analyzed with Genedata Screener.

[2] = Pharmacokinetics in female CD1 mice (oral / intravenous); assay type: in vivo; details: mouse; for AUC ng/ml*h (normalized to 1 mp/k) / Cmax ng/mL (normalized to 1 mg/k): normalized to 1 mg/kg; for Fz: oral
Description: Female CD1 mice (N=3) received a single oral (gavage) or a single intravenous (bolus) injection of compound. […] Consecutive blood samples were taken sub-lingually under isofluorane inhalation from animals after 0.083 (IV), 0.25, 0.5, 1, 2, 4, 6 and 24 h and were further processed to obtain plasma. Samples were protein precipitated and analysed by LC/MS/MS.

[3] = biological target: Kv11.1 (hERG) ion channel (Homo sapiens (Human), UniProt Q12809); test: hERG patch clamp in Kv11.1 (hERG) transfected HEK293 cells; assay type: cell-based
Description: Inhibition of the ion channel hErg (or Kv11.1) current causes QT interval prolongation resulting in potentially fatal ventricular tachyarrhythmia called Torsade de Pointes.
hERG ion channel activity was assessed using a patch clamp technique in stable Kv11.1 (hERG) transfected human embryonic kidney cell line (HEK293). Whole cell recordings were carried out with an automated patch clamp device Patchliner™ from Nanion Technologies, Munich following manufacturer recommendation. Different concentrations of the test compound or reference, quinidine, were applied to whole cells suspension and current was measured using a pulse pattern with fixed amplitudes.

KYSE-520 xenografts = test: Kyse-520 xenograft (EGFR amplified esophageal cancer); details: H2D Rag2 mice
Text: H2D Rag2 mice were inoculated with 5 million KYSE-520 cells mixed with matrigel.
In vivo efficacy of compound 74a in an EGFR amplified setting was investigated in Kyse-520 xenografts. H2D Rag2 mice were inoculated with 5 million KYSE-520 cells mixed with matrigel.

MiaPaCa-2 xenografts = assay type: in vivo, mouse; details: 50 or 100 mg/kg QD oral gavage, H2D Rag2 mice
Text: H2D Rag2 mice were inoculated with 3 million MiaPaCa-2 cells.

HPAF-2 xenografts = details: 50 mg/kg compound 23B or 60 mg/kg RMC-4550 QD oral gavage, CB17.SCID mice
EBC-1 xenografts = test: EBC-1 xenograft (cMET amplified non-small cell lung cancer); assay type: in vivo; details: 100 mg/kg QD oral gavage, CD-1 nude mice
Text: CD-1 nude mice were inoculated with 5 million EBC-1 cells.

U87-MG xenografts = test: U87-MG xenograft (PTEN LOF glioblastoma); assay type: in vivo, mouse; details: 50 mg/kg QD oral gavage, CD-1 nude mice
Text: CD-1 nude mice were inoculated with 10 million U87-MG cells.

[4] = biological target: auto-activated mutant protein SHP2 E76K (Homo sapiens (Human), UniProt Q06124, E76K); test: SHP2 E76K active mutant biochemical assay with and without activating peptide
Description: The inhibition of SHP2 by compounds of the invention was monitored using the surrogate substrate DiFMUP after protein activation by a peptide bearing two appropriately spaced phosphotyrosine. Full length SHP2 protein (Recombinant HumanSHP-2, E. coli derived Ser2Arg593, N-terminal 6His tag from R&D systems; 0.0.24 nM) was incubated with activating peptide, IRSI_2pY (New England Peptide, 140 nM) and DiFMUP (molecular probes, 80 uM) at RT in buffer (HEPES pH 7.2 60 mM, DDT 5 mM, KCl 75 mM, NaCl 75 mM, EDTA 1 mM, Tween 20 0.05%) in presence of compound (10 concentrations range, top concentration 50 μM) for 60 min. The generation of the DiFMU product by activated SHP2 was monitored through Fluorescence measurement with a PerkinElmer Envision reader. The inhibitor dose response curves were analyzed with Genedata Screener.

[5] = test system: MCP-1 production in U937 cells; test: Cytokine release assay: MCP-1 production in U937 cells stimulated with IL-6; assay type: cell-based
Description: Selected compounds were tested in a cytokine release assay in monocytic cells (U937) to test their anti-inflammatory properties. Cells were plated in a 96-well cell culture plate using serum-free media. The cells were treated with indicated concentrations of SHP-2 inhibitors for 30 minutes followed by overnight stimulation with recombinant IL-6 (50 ng/mL). The MCP-1 production was measured in the culture supernatant using a MCP-1 AlphaLISA kit (Perkin Elmer).

[6] = 0.8, 2.5 or 8 mg/kg QD oral gavage
[7] = 10, 30 or 100 mg/kg QD oral gavage

Full length SHP2 protein (Recombinant Human SHP-2), sequence (Q06124 2-593): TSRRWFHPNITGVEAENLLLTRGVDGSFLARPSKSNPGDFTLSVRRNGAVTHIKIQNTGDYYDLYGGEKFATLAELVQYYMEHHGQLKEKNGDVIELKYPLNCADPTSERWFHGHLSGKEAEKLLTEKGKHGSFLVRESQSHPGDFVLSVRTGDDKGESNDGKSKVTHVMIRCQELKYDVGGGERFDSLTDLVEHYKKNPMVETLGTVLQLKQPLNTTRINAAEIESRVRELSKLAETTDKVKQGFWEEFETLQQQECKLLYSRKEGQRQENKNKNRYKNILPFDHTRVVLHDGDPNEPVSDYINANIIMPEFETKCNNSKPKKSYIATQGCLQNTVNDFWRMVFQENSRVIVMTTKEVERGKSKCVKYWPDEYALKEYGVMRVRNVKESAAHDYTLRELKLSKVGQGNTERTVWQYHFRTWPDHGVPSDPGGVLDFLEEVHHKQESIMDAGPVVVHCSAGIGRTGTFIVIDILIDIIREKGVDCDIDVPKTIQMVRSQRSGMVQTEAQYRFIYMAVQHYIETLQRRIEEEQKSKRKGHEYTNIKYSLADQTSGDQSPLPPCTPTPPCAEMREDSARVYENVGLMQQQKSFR
Kv11.1 (hERG) ion channel, sequence (Q12809 whole entry): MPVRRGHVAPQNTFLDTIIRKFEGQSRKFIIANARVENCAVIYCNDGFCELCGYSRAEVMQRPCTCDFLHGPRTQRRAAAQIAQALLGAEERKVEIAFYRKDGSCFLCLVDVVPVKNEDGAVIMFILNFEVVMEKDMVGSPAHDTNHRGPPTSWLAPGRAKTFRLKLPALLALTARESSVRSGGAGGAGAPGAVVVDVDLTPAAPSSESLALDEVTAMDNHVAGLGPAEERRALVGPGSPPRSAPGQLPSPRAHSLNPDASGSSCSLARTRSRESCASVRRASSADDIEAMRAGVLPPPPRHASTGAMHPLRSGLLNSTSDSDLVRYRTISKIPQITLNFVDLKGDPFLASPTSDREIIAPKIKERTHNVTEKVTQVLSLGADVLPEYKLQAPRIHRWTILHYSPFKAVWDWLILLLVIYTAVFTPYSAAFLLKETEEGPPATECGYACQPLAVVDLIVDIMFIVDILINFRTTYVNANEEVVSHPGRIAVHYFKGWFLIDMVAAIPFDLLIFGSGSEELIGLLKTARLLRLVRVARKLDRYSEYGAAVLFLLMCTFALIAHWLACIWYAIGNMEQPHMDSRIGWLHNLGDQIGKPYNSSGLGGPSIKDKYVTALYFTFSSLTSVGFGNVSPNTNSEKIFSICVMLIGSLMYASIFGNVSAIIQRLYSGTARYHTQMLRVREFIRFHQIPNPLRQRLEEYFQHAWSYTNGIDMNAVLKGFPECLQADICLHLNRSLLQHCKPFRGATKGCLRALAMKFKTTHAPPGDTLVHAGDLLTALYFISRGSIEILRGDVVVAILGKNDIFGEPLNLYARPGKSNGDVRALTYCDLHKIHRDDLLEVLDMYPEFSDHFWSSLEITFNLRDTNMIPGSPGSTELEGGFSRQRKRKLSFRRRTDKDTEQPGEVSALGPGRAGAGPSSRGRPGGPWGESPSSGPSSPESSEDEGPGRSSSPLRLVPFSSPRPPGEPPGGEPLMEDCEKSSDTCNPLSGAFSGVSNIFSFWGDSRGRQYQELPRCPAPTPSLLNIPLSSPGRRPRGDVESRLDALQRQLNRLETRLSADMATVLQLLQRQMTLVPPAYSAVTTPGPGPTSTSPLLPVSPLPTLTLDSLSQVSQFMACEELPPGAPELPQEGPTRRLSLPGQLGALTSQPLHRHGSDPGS
auto-activated mutant protein SHP2 E76K, sequence (Q06124 whole entry E76K): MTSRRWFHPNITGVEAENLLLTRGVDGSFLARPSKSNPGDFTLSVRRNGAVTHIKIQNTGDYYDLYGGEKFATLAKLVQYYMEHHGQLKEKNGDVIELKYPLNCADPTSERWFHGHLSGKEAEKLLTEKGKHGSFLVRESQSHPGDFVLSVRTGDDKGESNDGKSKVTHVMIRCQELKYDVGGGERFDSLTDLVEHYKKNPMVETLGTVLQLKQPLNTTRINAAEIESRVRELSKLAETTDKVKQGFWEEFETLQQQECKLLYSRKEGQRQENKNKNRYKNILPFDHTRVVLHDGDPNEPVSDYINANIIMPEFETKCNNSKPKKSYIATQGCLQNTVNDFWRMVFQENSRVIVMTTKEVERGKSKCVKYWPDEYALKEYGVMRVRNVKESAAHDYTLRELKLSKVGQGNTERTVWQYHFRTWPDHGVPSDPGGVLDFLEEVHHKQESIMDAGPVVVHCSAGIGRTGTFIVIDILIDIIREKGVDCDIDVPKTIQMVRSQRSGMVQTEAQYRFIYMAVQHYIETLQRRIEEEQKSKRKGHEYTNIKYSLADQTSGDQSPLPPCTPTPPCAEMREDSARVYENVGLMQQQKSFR

Row | SMILES | IC50 [1] | AUC ng/ml*h (normalized to 1 mp/k) [2] | Cmax ng/mL (normalized to 1 mg/k) [2] | Fz [2] | other results
1 | Cc1c(N2CCC3(CC2)c2ncccc2C[C@H]3N)nc(C)n(-c2cccc(Cl)c2Cl)c1=O [Compound 75, (3M)-6-[(6R)-6-amino-5,6-dihydrospiro[cyclopenta[b]pyridine-7,4′-piperidin]-1′-yl]-3-(2,3-dichlorophenyl)-2,5-dimethyl-3,4-dihydropyrimidin-4-one] | 120 nM |  |  |  | IC50 (pERK1/2 in KYSE520 cells): 824 nM
2 | Cc1c(N2CCC3(CC2)Cc2ncccc2[C@H]3N)nc(C)n(-c2cccc(Cl)c2Cl)c1=O (single isomer, unassigned) [Compound 66b] |  | 2387 ng·h/mL | 367 ng/mL | 100% | Split between hErg and cell activity Ki (patch Clamp)/IC50 (KYSE) [3]: 580
3 | C[C@@H]1OCC2(CCN(c3cc(=O)n(-c4cccc(Cl)c4Cl)c(C(F)F)n3)CC2)[C@@H]1N (atropisomer, axis not shown; (M)) [Compound 20b, (3M)-6-[(3S,4S)-4-amino-3-methyl-2-oxa-8-azaspiro[4.5]decan-8-yl]-3-(2,3-dichlorophenyl)-2-(difluoromethyl)-3,4-dihydropyrimidin-4-one] | 1100 nM |  |  |  | 
4 | Cc1c(N2CCC3(CC2)Oc2ccccc2[C@H]3N)nc(C)n(-c2cccc(Cl)c2Cl)c1=O (single isomer, unassigned) [Compound 81b] |  | 3270 ng·h/mL | 450 ng/mL | 48% | 
5 | Cc1c(N2CCC3(CC2)Cc2ccccc2[C@H]3N)nc(C)n(-c2cccc(Cl)c2Cl)c1=O [Compound 74a, (3M)-6-[(1S)-1-amino-1,3-dihydrospiro[indene-2,4′-piperidin]-1′-yl]-3-(2,3-dichlorophenyl)-2,5-dimethyl-3,4-dihydropyrimidin-4-one] | 1 nM | 2108 ng·h/mL | 129 ng/mL | 100% | tolerability (KYSE-520 xenografts; [6]): well tolerated; tumor growth (KYSE-520 xenografts; [6]): reduce growth of the tumor a significant amount; also recorded: dose-dependent significant tumor growth inhibition
6 | Cc1c(N2CCC3(CC2)Cc2ccccc2[C@@H]3N)nc(C)n(-c2cccc(Cl)c2Cl)c1=O (atropisomer, axis not shown; (M)) [Compound 74c, (3M)-6-[(1R)-1-amino-1,3-dihydrospiro[indene-2,4′-piperidin]-1′-yl]-3-(2,3-dichlorophenyl)-2,5-dimethyl-3,4-dihydropyrimidin-4-one] | 250 nM |  |  |  | 
7 | Cc1c(N2CCC3(CC2)Oc2cnccc2C3N)nc(C)n(-c2cccc(Cl)c2Cl)c1=O (single isomer, unassigned) [Compound 80c] |  |  |  |  | IC50 (pERK1/2 in KYSE520 cells): 420 nM
8 | Cc1c(N2CCC3(CC2)CO[C@@H](C)[C@H]3N)nc(C)n(-c2cccc(Cl)c2Cl)c1=O (single isomer, unassigned) [Compound 23b] |  | 1222 ng·h/mL | 177 ng/mL | 100% | tolerability (MiaPaCa-2 xenografts): well tolerated; tolerability (HPAF-2 xenografts): well tolerated; tumor growth (HPAF-2 xenografts): Significant tumor inhibition; tolerability (EBC-1 xenografts): well tolerated; tumor growth (EBC-1 xenografts): reduces tumor growth; also recorded: Significant tumor growth inhibition; tumor growth (U87-MG xenografts): reduces tumor size as compared to baseline; also recorded: Tumor regression; IC50 [4]: 12000 nM; tolerability (KYSE-520 xenografts; [7]): well tolerated; tumor growth (KYSE-520 xenografts; [7]): reduce growth of the tumor a significant amount; also recorded: dose-dependent significant tumor growth inhibition
9 | Cc1c(N2CCC3(CC2)C[C@@H](C)C[C@H]3N)nc(C)n(-c2cccc(Cl)c2Cl)c1=O [Compound 77, (3M)-6-[(1R,3R)-1-amino-3-methyl-8-azaspiro[4.5]decan-8-yl]-3-(2,3-dichlorophenyl)-2,5-dimethyl-3,4-dihydropyrimidin-4-one] |  |  |  |  | MCP-1 production (FIG. 1) [5]: suppressed MCP-1 production
10 | Cc1nc(N2CCC3(CC2)CO[C@@H](C)[C@H]3N)cc(=O)n1-c1cccc(Cl)c1Cl (single isomer, unassigned) [Compound 3b] |  | 1765 ng·h/mL | 223 ng/mL | 85% | 
11 | Cc1c(N2CCC3(CCC[C@H]3N)CC2)nc(C)n(-c2cccc(Cl)c2Cl)c1=O (single isomer, unassigned) [Compound 67b] |  |  |  |  | IC50 (pERK1/2 in KYSE520 cells): 198 nM
12 | Cc1c(N2C[C@H]3CC(CO)C[C@@]3(CN)C2)nc(C)n(-c2cccc(Cl)c2Cl)c1=O (stereo partly drawn) [Compound 101, (3M)-6-[(3aR,6aS)-3a-(aminomethyl)-5-(hydroxymethyl)-octahydrocyclopenta[c]pyrrol-2-yl]-3-(2,3-dichlorophenyl)-2,5-dimethyl-3,4-dihydropyrimidin-4-one] | 230 nM |  |  |  | 
13 | Cc1nc(N2CCC3(CC2)CO[C@@H](C)[C@H]3N)c(CO)nc1-c1cccc(Cl)c1Cl [RMC-4550, reference compound] |  | 735 ng·h/mL | 85 ng/mL | 86% | tumor growth (HPAF-2 xenografts): Significant tumor inhibition
14 | Cc1c(N2CCC3(CCC[C@@H]3N)CC2)nc(N)n(-c2cccc(Cl)c2Cl)c1=O (atropisomer, axis not shown; (M)) [Compound 78c, (3M)-2-amino-6-[(1S)-1-amino-8-azaspiro[4.5]decan-8-yl]-3-(2,3-dichlorophenyl)-5-methyl-3,4-dihydropyrimidin-4-one] | 2100 nM |  |  |  | 
15 | Cc1c(N2CCC3(CCC[C@H]3N)CC2)nc(C)n(-c2cccc(Cl)c2Cl)c1=O (single isomer, unassigned) [Compound 67a] | 19000 nM |  |  |  | 
